# From US8877948B2, “Synthesis process of polyol carbonate from polyols, conducted in using a solvent selective for polyols carbonates” (Arkema France, priority 2008, dated 2014)
# Test: Solubility of glycerol carbonate, glycerol and urea in selective solvents
# Assay type: physicochemical
# Conditions: at 25° C.
compound,measurement,setting,value
CC(C)C#N [Isobutyronitrile],Solubility of Glycerol Carbonate,solute glycerol carbonate in the listed solvent,>500 mg/mL
same,Solubility of Glycerol,solute glycerol in the listed solvent,10 mg/mL
same,Solubility of Urea,solute urea in the listed solvent,60 mg/mL
